Source: US20140227326A1, “METHOD OF DELIVERING NASAL SPRAY” (priority 2004, published 2014)

Assay: Pharmacokinetic testing of olopatadine 0.6% nasal spray in clinical trials (plasma level by HPLC)
Type: in vivo
Conditions: human subjects, formulation containing 0.6% olopatadine, two sprays/nostril twice per day, intranasal

- time post-dose at which peak plasma concentration was measured: 0.5 to 2 h
- peak plasma concentration of olopatadine (C.), observed range (plasma, high performance liquid chromatography): 14.4 to 35.3 ng/mL
- peak plasma concentration of olopatadine (C.), mean (plasma, mean +/- spread): 23.3 ± 6.1 ng/mL
SMILES: CN(C)CC/C=C1/c2ccccc2COc2ccc(CC(=O)O)cc21 [olopatadine, Z-11-(3-dimethylaminopropylidene)-6,11-dihydrodibenz[b,e]oxepine-2-acetic acid]
